Source: patent publication US11046688B2, “Inhibitor compounds” (Cancer Research Technology Limited, priority 2012, dated 2021)

Target: full length MPS1 (Homo sapiens (Human), UniProt P33981)
Experiment: Measurement of Inhibition of MPS1 Kinase (Caliper EZ reader, fluorescent labelled peptide H236)
Assay type: biochemical
Conditions: full length MPS1 12.5 nM or 3 nM, H236 peptide 5 μM, ATP 10 μM, 60 min at room temperature
Description: The reaction was carried out for 60 min at room temperature and stopped by the addition of buffer (10 μl) containing 20 mM EDTA, 0.05% (v/v) Brij-35, in 0.1M HEPES-buffered saline (Free acid, Sigma. UK). The plate was read on a Caliper EZ reader II (Caliper Life Sciences).
The % inhibition of the compounds is calculated relative to the means of selected control wells. […] The % inhibitions at each concentration are then fitted to a 4 parameter logistic fit: y=(a+((b−a)/(1+((c/x^d)))) where a=asym min, b=asym max, c=IC50 and d=hill coefficient

full length MPS1, sequence (P33981 whole entry): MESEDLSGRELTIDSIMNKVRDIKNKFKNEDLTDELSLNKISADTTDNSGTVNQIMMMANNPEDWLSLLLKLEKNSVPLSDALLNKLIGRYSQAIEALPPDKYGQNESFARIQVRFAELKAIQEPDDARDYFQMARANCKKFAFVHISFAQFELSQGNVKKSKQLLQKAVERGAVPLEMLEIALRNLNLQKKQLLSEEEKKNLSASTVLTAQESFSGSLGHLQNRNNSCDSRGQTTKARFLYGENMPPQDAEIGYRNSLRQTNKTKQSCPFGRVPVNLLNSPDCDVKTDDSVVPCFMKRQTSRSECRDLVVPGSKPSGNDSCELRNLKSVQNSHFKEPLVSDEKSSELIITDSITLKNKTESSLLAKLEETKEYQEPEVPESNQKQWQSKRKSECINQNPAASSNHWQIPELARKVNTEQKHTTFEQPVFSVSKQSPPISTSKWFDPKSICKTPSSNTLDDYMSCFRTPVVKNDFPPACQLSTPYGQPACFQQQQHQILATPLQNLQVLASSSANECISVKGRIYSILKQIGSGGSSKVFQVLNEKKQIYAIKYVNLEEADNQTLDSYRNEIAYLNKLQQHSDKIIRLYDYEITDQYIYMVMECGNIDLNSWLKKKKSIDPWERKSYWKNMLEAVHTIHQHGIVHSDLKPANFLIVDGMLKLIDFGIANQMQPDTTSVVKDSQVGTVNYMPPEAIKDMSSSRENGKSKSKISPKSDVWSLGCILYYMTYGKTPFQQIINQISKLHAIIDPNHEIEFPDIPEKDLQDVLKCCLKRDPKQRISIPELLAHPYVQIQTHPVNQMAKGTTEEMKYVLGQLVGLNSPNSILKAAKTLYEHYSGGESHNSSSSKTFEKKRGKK

| SMILES | IC50 [nM] |
| --- | --- |
| COc1cc(-c2cn(C)nc2C)ccc1Nc1ncc2ccnc(NCC(C)(C)C)c2n1 [Example 48, N2-(4-(1,3-dimethyl-1H-pyrazol-4-yl)-2-methoxyphenyl)-N8-neopentylpyrido[3,4-d]pyrimidine-2,8-diamine] | 5 |
| COc1cc(-c2cnn(C)c2C)ccc1Nc1ncc2ccnc(NCC(C)(C)C)c2n1 [Example 49, N2-(4-(1,5-dimethyl-1H-pyrazol-4-yl)-2-methoxyphenyl)-N8-neopentylpyrido[3,4-d]pyrimidine-2,8-diamine] | 5 |
| COc1cc(-c2cnn(C)c2)ccc1Nc1ncc2c(C)cnc(NCC(C)(C)C)c2n1 [Example 149, N^2-(2-methoxy-4-(1-methyl-1H-pyrazol-4-yl)phenyl)-5-methyl-N^8-neopentylpyrido[3,4-d]pyrimidine-2,8-diamine] | 34 |
| COc1nc(-c2nnnn2C)ccc1Nc1ncc2ccnc(NCC(C)(C)OC)c2n1 [Example 161, N^8-(2-Methoxy-2-methylpropyl)-N^2-(2-methoxy-6-(1-methyl-1H-tetrazol-5-yl)pyridin-3-yl)pyrido[3,4-d]pyrimidine-2,8-diamine] | 31 |
